# Assay results reported in US9399631B2, “Polyphenol proteasome inhibitors, synthesis, and methods of use” (UNIVERSITY OF SOUTH FLORIDA, priority 2003, dated 2016).
# pIC50: −log10 of the molar value. Like-named read-outs stand apart in the source and are kept apart here.
# What was measured:
# [1] = target: purified 20S proteasome (UniProt Q9P992); assay: Inhibition of chymotrypsin-like activity of purified 20S proteasome (source not stated); format: biochemical; set-up: IC50; other: purified 20S proteasome, multiple concentrations; conditions: purified 20S proteasome, multiple concentrations
# Protocol: (§1) Inhibition of purified 20S proteasome activity by natural or synthetic GTPs. Purified prokaryotic (0.5 μg) or eukaryotic (0.02 μg) 20S proteasome was incubated with 20 μM fluorogenic peptide substrate, Suc-Leu-Leu-Val-Tyr-AMC for 30 min at 37° C. in […] of assay buffer (50 mM Tris-HCl, pH 7.5), with or without a natural or synthetic tea polyphenol. After incubation, production of hydrolyzed 7-amido-4-methyl-coumarin (AMC) groups was measured using a multi-well plate VERSAFLUOR Fluorometer with an excitation filter of 380 nm and an emission filter of 460 nm (BIO-RAD), and a multi-well plate reader Wallac 1420 VICTORTM^2 with an excitation filter of 355 nm and an emission filter of 460 nm (EG&G WALLAC).
# [2] = tested on: DU145 cells; assay: Western blot of Bax and PARP in DU145 cells; format: cell-based, human; conditions: 10 μM, 24 hours
# Protocol: Cell Culture, Cell Extract Preparation, and Western Blot Assay. Human leukemia Jurkat T and prostate cancer LNCaP cells were cultured in RPMI 1640 medium supplemented with 10% fetal calf serum, 100 units/ml of penicillin, and 100 μg/ml streptomycin. Human immortalized, non-transformed NK cells (YT cell line) (38) were cultured in RPMI 1640 supplemented with 1 mM MEM sodium pyruvate solution, 0.1 mM MEM non-essential amino acids solution, 10% fetal calf serum. 100 units/ml penicillin, and 100 μg/ml streptomycin. Normal (WI-38) and simian virus 40 (SV40)-transformed (VA-13) human fibroblasts were grown in Dulbecco's modified Eagle's medium supplemented with 10% fetal calf serum, 100 units/ml of penicillin and 100 μg/ml of streptomycin. All cells were maintained at 37° C. in a humidified incubator with an atmosphere of 5% CO2. A whole cell extract was prepared in accordance with An et al. (An, B. et al. Cell Death Differ, 1998, 5:1062-75). […] The ratio of p27 or IκB-α to the corresponding actin was determined by scanning intensities of the protein bands.
# Exponentially growing LNCaP and DU-145 prostate cells were harvested and the levels of Bax protein was detected by Western blot analysis (FIG. 20A). […]
# [3] = target: purified 20S proteasome (UniProt Q9P992); assay: Inhibition of chymotrypsin-like activity of purified 20S proteasome (source not stated); format: biochemical; set-up: other: 1 μM; other: 10 μM; conditions: 1 μM
# Protocol: as §1
# [4] = tested on: DU145 cells; assay: Cell-free caspase-3 activity assay, DU145 cells; format: cell-based, human; conditions: 10 μM, 72 hours, normalized to 0 hours
# Protocol: To examine whether (+)-EGCG could induce apoptosis only in LNCaP, but not DU-145, cells, both cell lines were treated with 10 μM (+)-EGCG for 0, 24, 48 or 72 hours, followed by performance of cell-free caspase-3 activity assay. Cells were harvested at each sequential time-point and activity was determined by incubating whole cell extracts with caspase-3 substrate and measuring free AMCs (FIG. 20C). All the time-points were normalized to 0 hours. (+)-EGCG activated caspase-3 in LNCaP cells in a time-dependent manner: by 2.5-, 3.5- and 6-fold at 24, 48 and 72 hours, respectively (FIG. 20C). In contrast, little caspase-3 activity was detected in (+)-EGCG-treated in DU145 cells: only ˜2-fold induction at 72 hours (FIG. 20C). In the same experiment, (−)-EGCG at 10 μM was used as a control. […] Therefore, the abilities of (+)-EGCG to activate apoptotic program in these prostate cancer cell lines are correlated well to their abilities to accumulate Bax protein levels to a critical high threshold (compare FIGS. 20C and 20D vs. 20B). Values are means of triplicate independent experiments and error bars denote standard deviations.
# [5] = tested on: 26S proteasome in a Jurkat cell lysate; assay: Chymotrypsin-like activity of 26S proteasome in Jurkat cell lysate; format: biochemical, human; conditions: 10 μM
# Protocol: To determine the specificity of the synthetic GTP analogs, their effects were tested on the chymotrypsin-like and trypsin-like activities of the 26S proteasome in a Jurkat cell lysate. […] (+)-GCG at the same concentration inhibited ˜50% of the chymotrypsin-like activity. The potencies of (+)-EGCG and (+)-GCG were similar to those of their natural partners, respectively (FIG. 17A). […] Furthermore, none of the synthetic or control natural compounds could inhibit more than 15% of activity of a purified calpain enzyme (FIG. 17C). […] Values are mean triplicates and error bars denote standard deviations.
# [6] = tested on: NK cells (YT cell line); assay: Western blot of proteasome target proteins in non-transformed NK cells (YT line); format: cell-based, human; conditions: treatment up to 12 hour
# Protocol: Cell Culture, Cell Extract Preparation, and Western Blot Assay. Human leukemia Jurkat T and prostate cancer LNCaP cells were cultured in RPMI 1640 medium supplemented with 10% fetal calf serum, 100 units/ml of penicillin, and 100 μg/ml streptomycin. Human immortalized, non-transformed NK cells (YT cell line) (38) were cultured in RPMI 1640 supplemented with 1 mM MEM sodium pyruvate solution, 0.1 mM MEM non-essential amino acids solution, 10% fetal calf serum. 100 units/ml penicillin, and 100 μg/ml streptomycin. Normal (WI-38) and simian virus 40 (SV40)-transformed (VA-13) human fibroblasts were grown in Dulbecco's modified Eagle's medium supplemented with 10% fetal calf serum, 100 units/ml of penicillin and 100 μg/ml of streptomycin. All cells were maintained at 37° C. in a humidified incubator with an atmosphere of 5% CO2. A whole cell extract was prepared in accordance with An et al. (An, B. et al. Cell Death Differ, 1998, 5:1062-75). Briefly, cells were harvested, washed with PBS twice, and homogenized in a lysis buffer [50 mM Tris-HCl (pH 8.0), 5 mM EDTA, 150 mM NaCl, 0.5% NP-40, 0.5 mM phenylmethylsulfonyl fluoride, and 0.5 mM dithiothreitol] for 30 min at 4° C. Afterwards, lysates were centrifuged at 12,000×g for 15 min at 4° C., and the supernatants were collected as whole cell extracts. Equal amounts of protein extract (60 μg) were resolved by SDS-polyacrylamide gel electrophoresis and transferred to a nitrocellulose membrane using a Semi-Dry Transfer system (BIO-RAD, Hercules, Calif.). Jurkat T, LNCaP, or DU-145 cells were treated with various concentrations of synthetic or natural tea polyphenols for indicted hours. The enhanced chemiluminescence (ECL) Western blot analysis was then performed using specific antibodies to the proteins of interest (p^27kip, IκB-α, PARP, Bax or actin). The ratio of p27 or IκB-α to the corresponding actin was determined by scanning intensities of the protein bands. […]
# [7] = tested on: purified 20S proteasome; conditions: natural (−)-EGCG; cited from earlier work
# [8] = tested on: MCF-7 cells; assay: Proteasome inhibition / p27 accumulation in MCF-7 cells; format: cell-based, human
# Sequence of purified 20S proteasome (UniProt Q9P992) (Q9P992 whole entry): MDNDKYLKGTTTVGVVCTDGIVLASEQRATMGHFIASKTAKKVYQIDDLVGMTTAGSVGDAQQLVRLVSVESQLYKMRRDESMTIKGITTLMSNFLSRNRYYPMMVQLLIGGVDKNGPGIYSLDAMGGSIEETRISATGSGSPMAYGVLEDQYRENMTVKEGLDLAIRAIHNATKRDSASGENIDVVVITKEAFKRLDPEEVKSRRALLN
SMILES,pIC50 ([1]; read-out: IC50),Bax protein levels [2],inhibition of proteasomal activity [3],caspase-3 induction [4],inhibition of chymotrypsin-like activity of 26S proteasome [5],pIC50 [1],IκB-α expression [6],p27 expression [6],pIC50 [7],inhibition of proteasome activity / accumulation of p27 [8]
"O=C(OC1Cc2c(O)cc(O)cc2OC1c1cc(O)c(O)c(O)c1)c1cc(O)c(O)c(O)c1 (single isomer, unassigned; (+)) [(+)-EGCG]",6.68,neither (+)-EGCG nor (−)-EGCG was able to increase the levels of Bax protein,86%,~2 fold,76%,,,,,
"O=C(OC1Cc2c(O)cc(O)cc2OC1c1cc(O)c(O)c(O)c1)c1cc(O)c(O)c(O)c1 (single isomer, unassigned; (+)) [(+)-GCG]",,,70%,,~50%,6.39,,,,
"O=C(O[C@@H]1Cc2c(O)cc(O)cc2O[C@@H]1c1cc(O)c(O)c(O)c1)c1cc(O)c(O)c(O)c1 [(−)-EGCG, (−)-epigallocatechin-3-gallate, reference compound]",,neither (+)-EGCG nor (−)-EGCG was able to increase the levels of Bax protein,,,,,unchanged,no p27 expression was detected,6.70 to 7.00,
"O=C(N[C@@H]1Cc2c(O)cc(O)cc2O[C@@H]1c1cc(O)c(O)c(O)c1)c1cc(O)c(O)c(O)c1 [(−)-EGCG-amide, (−)-[2R,3R]-N-[5,7-Dihydroxy-2-(3,4,5-trihydroxyphenyl)-chroman-3-yl]-3,4,5-trihydroxybenzamide]",,,,,,,unchanged,,,able to inhibit the proteasome activity
